Laboratory results published in US20240016781A1, “TREATMENT OF KRAS MUTANT CANCERS” (MEI Pharma, Inc., priority 2020, published 2024).
Like-named read-outs stand apart in the source and are kept apart here.

Columns and labels:
Experiment in all cases: 72-hour CellTiter-Glo 2.0 growth inhibition screen (single agent, 9x9 combination dose matrix);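 on Best CI Level: inhibition effect level at which the best CI was calculated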
Type in all cases: cell-based
HCC44 = settings: for Response Area / EC50 / Emax: HCC44, Lung; for EC50 / Emax: Homo sapiens; for EC50: HCC44, 72 h
KYSE-410 = settings: for EC50 / Emax: Homo sapiens; for EC50: KYSE-410, 72 h; for EC50 / Emax / Response Area: KYSE-410, Esophageal
NCI-H358 = settings: for EC50: NCI-H358, 72 h
Panc 04.03 = settings: for Response Area: Panc 04.03, Pancreas
SW837 = settings: for EC50: SW837, 72 h
[1] = HCC44 (KRAS G12C), enhancer + MEI-522 (Voruciclib), 72 h;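 on Best CI Level: inhibition effect level at which the best CI was calculated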
[2] = Additional Single Agent Responses (inhibition, % I), 72 h
[3] = growth inhibition (GI), AUC, single agent, 72 h
[4] = growth inhibition (GI) curve, single agent, 72 h
[5] = Additional Single Agent Responses, 72 h, read-out: Max Response (% I)
[6] = growth inhibition (GI), single agent, 72 h, read-out: Max Response (% GI)
[7] = enhancer combined with MEI-522 (Voruciclib), HCC44 (Lung), 72 hours, inhibition data
[8] = KYSE-410 (KRAS G12C), enhancer + MEI-522 (Voruciclib), 72 h;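 on Best CI Level: inhibition effect level at which the best CI was calculated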
[9] = enhancer combined with MEI-522 (Voruciclib), KYSE-410 (Esophageal), 72 hours, inhibition data
[10] = NCl-H358 (KRAS G12C), enhancer + MEI-522 (Voruciclib), 72 h
[11] = enhancer combined with MEI-522 (Voruciclib), NCl-H358 (Lung), 72 hours, inhibition data
[12] = Panc 04.03 (KRAS G12D), enhancer + MEI-522 (Voruciclib), 72 h;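 on Best CI Level: inhibition effect level at which the best CI was calculated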
[13] = enhancer combined with MEI-522 (Voruciclib), Panc 04.03 (Pancreas), 72 hours, inhibition data
[14] = Homo sapiens, SW837, Colorectal, growth inhibition (GI) curve, single agent, 72 h
[15] = SW837 (KRAS G12C), enhancer + MEI-522 (Voruciclib), 72 h;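 on Best CI Level: inhibition effect level at which the best CI was calculated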
[16] = enhancer combined with MEI-522 (Voruciclib), SW837 (Colorectal), 72 hours, inhibition data

**Q.** Which results are given for `C=CC(=O)N1CCN(c2nc(=O)n(-c3c(C)ccnc3C(C)C)c3nc(-c4c(O)cccc4F)c(F)cc23)[C@@H](C)C1` [AMG510]?
**A.** Best CI (HCC44; [1]): 0.63; Bliss Volume (HCC44; [1]): 2.46; HSA volume (HCC44; [1]): 2.64; Loewe Volume (HCC44; [1]): 2.30; Synergy Score (HCC44; [1]): 4.36; Response Area (HCC44; [2]): 1.52; Response Area (HCC44; [3]): 1.97; EC50 (HCC44; [2]): 4.1 nM; EC50 (HCC44; [4]): 4.6 nM; Emax (HCC44; [5]): 32%; Emax (HCC44; [6]): 41%; Best CI (HCC44; [7]): 0.67; Bliss Volume (HCC44; [7]): −0.82; HSA volume (HCC44; [7]): 1.08; Loewe Volume (HCC44; [7]): 0.97; Synergy Score (HCC44; [7]): 1.16; Best CI Level (HCC44; enhancer combined with MEI-522 (Voruciclib), HCC44 (Lung), 72 hours, inhibition data, unit assumed): 45%; EC50 (KYSE-410; [2]): 5.8 nM; EC50 (KYSE-410; [4]): 6 nM; Emax (KYSE-410; [5]): 20%; Emax (KYSE-410; [6]): 24%; Best CI (KYSE-410; [8]): 1.14; Bliss Volume (KYSE-410; [8]): 1.47; HSA volume (KYSE-410; [8]): 2.26; Loewe Volume (KYSE-410; [8]): 2.48; Synergy Score (KYSE-410; [8]): 1.71; Response Area (KYSE-410; [2]): 0.88; Response Area (KYSE-410; [3]): 1.06; Best CI (KYSE-410; [9]): 1.14; Bliss Volume (KYSE-410; [9]): 1.06; HSA volume (KYSE-410; [9]): 1.87; Loewe Volume (KYSE-410; [9]): 2.13; Synergy Score (KYSE-410; [9]): 1.19; Best CI Level (KYSE-410; enhancer combined with MEI-522 (Voruciclib), KYSE-410 (Esophageal), 72 hours, inhibition data, unit assumed): 45%; EC50 (NCI-H358; Homo sapiens, NCl-H358, Lung, Additional Single Agent Responses (inhibition, % I), 72 h): 8.5 nM; EC50 (NCI-H358; Homo sapiens, NCl-H358, Lung, growth inhibition (GI) curve, single agent, 72 h): 9.4 nM; IC50 (NCI-H358; Homo sapiens, NCI-H358, NCl-H358, Lung, Additional Single Agent Responses (inhibition, % I), 72 h): 14.2 nM; Emax (NCI-H358; Homo sapiens, NCI-H358, NCl-H358, Lung, Additional Single Agent Responses, 72 h, read-out: Max Response (% I)): 79%; GI50 (NCI-H358; Homo sapiens, NCI-H358, NCl-H358, Lung, growth inhibition (GI) curve, single agent, 72 h): 8.8 nM; Emax (NCI-H358; Homo sapiens, NCI-H358, NCl-H358, Lung, growth inhibition (GI), single agent, 72 h, read-out: Max Response (% GI)): 108%; Best CI (NCI-H358; [10]): 0.51; Bliss Volume (NCI-H358; [10]): 4.55; HSA volume (NCI-H358; [10]): 2.53; Loewe Volume (NCI-H358; [10]): 2.07; Synergy Score (NCI-H358; [10]): 3.63; Response Area (NCI-H358; NCl-H358, Lung, Additional Single Agent Responses (inhibition, % I), 72 h): 3.87; Response Area (NCI-H358; NCl-H358, Lung, growth inhibition (GI), AUC, single agent, 72 h): 5.18; Best CI (NCI-H358; [11]): 0.51; Best CI Level (NCI-H358; [11]): 20; Bliss Volume (NCI-H358; [11]): −0.42; HSA volume (NCI-H358; [11]): 1.90; Loewe Volume (NCI-H358; [11]): 1.20; Synergy Score (NCI-H358; [11]): 1.07; EC50 (Panc 04.03; Homo sapiens, Panc 04.03, 72 h): 3000 nM; Emax (Panc 04.03; Homo sapiens, Panc 04.03, 72 h, read-out: Max Response (% GI)): 25%; Emax (Panc 04.03; Homo sapiens, Panc 04.03, 72 h, read-out: Max Response (% I)): 19%; Best CI (Panc 04.03; [12]): 0.51; Bliss Volume (Panc 04.03; [12]): 2.52; HSA volume (Panc 04.03; [12]): −2.59; Loewe Volume (Panc 04.03; [12]): 2.70; Synergy Score (Panc 04.03; [12]): 3.01; Response Area (Panc 04.03; [2]): 0.00; Response Area (Panc 04.03; [3]): 0.00; Best CI (Panc 04.03; [13]): 0.60; Best CI Level (Panc 04.03; [13]): 20; Bliss Volume (Panc 04.03; [13]): 0.79; HSA volume (Panc 04.03; [13]): −2.11; Loewe Volume (Panc 04.03; [13]): 1.18; Synergy Score (Panc 04.03; [13]): 1.06; EC50 (SW837; Homo sapiens, SW837, Colorectal, Additional Single Agent Responses (inhibition, % I), 72 h): 9.9 nM; EC50 (SW837; [14]): 10.4 nM; Emax (SW837; Homo sapiens, SW837, Colorectal, Additional Single Agent Responses, 72 h, read-out: Max Response (% I)): 37%; GI50 (SW837; [14]): 162 nM; Emax (SW837; Homo sapiens, SW837, Colorectal, growth inhibition (GI), single agent, 72 h, read-out: Max Response (% GI)): 56%; Best CI (SW837; [15]): 0.72; Bliss Volume (SW837; [15]): 7.24; HSA volume (SW837; [15]): 6.16; Loewe Volume (SW837; [15]): 6.02; Synergy Score (SW837; [15]): 6.03; Response Area (SW837; SW837, Colorectal, Additional Single Agent Responses (inhibition, % I), 72 h): 1.79; Response Area (SW837; SW837, Colorectal, growth inhibition (GI), AUC, single agent, 72 h): 2.67; Best CI (SW837; [16]): 0.64; Best CI Level (SW837; [16]): 65; Bliss Volume (SW837; [16]): 2.98; HSA volume (SW837; [16]): 4.27; Loewe Volume (SW837; [16]): 4.27; Synergy Score (SW837; [16]): 2.77
